Structures can show the parent of a compound that is named as a salt.
Key:
Conditions in all cases: incubation time: 27 h, anaerobic, 37 °C
[1] = tested on: Clostridium sporogenes DSM 1664; experiment: fold change of Tryptamine concentration vs plate DMSO controls (fold change (ratio)); higher = more amine produced
[2] = tested on: Clostridium sporogenes DSM 1664; experiment: growth (OD595) fold change vs plate DMSO controls (fold change (ratio)); higher = more growth
[3] = tested on: Klebsiella aerogenes DSM 30053; experiment: fold change of Histamine concentration vs plate DMSO controls (fold change (ratio)); higher = more amine produced
Method: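 Dose-response follow-up: bacteria (E. coli IAI1, K. aerogenes DSM 30053, C. sporogenes DSM 1664, R. gnavus DSM 108212) were grown anaerobically in mGAM at 37 °C for 27 h with compound at 0.6125-20 µM. Amines were measured in the whole culture by targeted LC-MS/MS. Metabolite fold change and OD595 fold change are relative to plate DMSO controls; n=2 biological replicates. OD fold changes are not clipped, so slightly negative values mean no growth.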

[4] = tested on: Klebsiella aerogenes DSM 30053; experiment: growth (OD595) fold change vs plate DMSO controls (fold change (ratio)); higher = more growth
[5] = tested on: Klebsiella aerogenes DSM 30053; experiment: fold change of Cadaverine concentration vs plate DMSO controls (fold change (ratio)); higher = more amine produced
[6] = tested on: Klebsiella aerogenes DSM 30053; experiment: fold change of Putrescine concentration vs plate DMSO controls (fold change (ratio)); higher = more amine produced
[7] = tested on: Ruminococcus gnavus DSM 108212; experiment: fold change of 2-Phenylethylamine concentration vs plate DMSO controls (fold change (ratio)); higher = more amine produced
[8] = tested on: Ruminococcus gnavus DSM 108212; experiment: fold change of Tryptamine concentration vs plate DMSO controls (fold change (ratio)); higher = more amine produced
[9] = tested on: Ruminococcus gnavus DSM 108212; experiment: growth (OD595) fold change vs plate DMSO controls (fold change (ratio)); higher = more growth

CC=CC1=C(C(=O)O)N2C(=O)[C@@H](NC(=O)[C@H](N)c3ccc(O)cc3)[C@H]2SC1 [Cefprozil]
Conditions | fold change of Tryptamine concentration, [1] | growth, [2]
0.6125 µM | 1 | 1.1
1.25 µM | 0.973 | 0.85
2.5 µM | 1 | 1.02
5 µM | 0.974 | 0.79
10 µM | 0.926 | 0.573
20 µM | 0.722 | 0.194

Cc1ncc([N+](=O)[O-])n1CC(C)O (configuration not stated) [Secnidazole]
Conditions | fold change of Tryptamine concentration, [1] | growth, [2]
0.6125 µM | 0.901 | 0.982
1.25 µM | 0.773 | 1.11
2.5 µM | 0.735 | 1.16
5 µM | 0.035 | 0.156
10 µM | 0.026 | -0.0233
20 µM | 0.0204 | -0.023

O=[N+]([O-])c1ccc(O)c2ncccc12 [Nitroxoline]
Conditions | fold change of Cadaverine concentration, [5] | fold change of Histamine concentration, [3] | fold change of Putrescine concentration, [6] | growth, [4]
0.6125 µM | 0.967 | 0.949 | 1.04 | 0.817
1.25 µM | 0.966 | 0.911 | 1.03 | 0.815
2.5 µM | 0.935 | 1.16 | 1.02 | 0.882
5 µM | 0.971 | 0.926 | 1.06 | 0.884
10 µM | 0.966 | 1.02 | 0.997 | 0.646
20 µM | 0.977 | 0.852 | 1.01 | 0.584

CC1(C)S[C@@H]2[C@H](NC(=O)[C@H](N)c3ccccc3)C(=O)N2[C@H]1C(=O)OC1OC(=O)c2ccccc21 (some centres not stated) [Talampicillin hydrochloride]
Conditions | fold change of 2-Phenylethylamine concentration, [7] | fold change of Cadaverine concentration, [5] | fold change of Histamine concentration, [3] | fold change of Putrescine concentration, [6] | fold change of Tryptamine concentration, [8] | growth, [4] | growth, [9]
0.6125 µM | 0.103 | 0.97 | 0.999 | 1.03 | 0.121 | 0.802 | 1.73
1.25 µM | 0.105 | 0.967 | 0.862 | 1.05 | 0.116 | 0.804 | 0.81
2.5 µM | 0.112 | 0.958 | 1.31 | 1.01 | 0.136 | 0.905 | 0.918
5 µM | 0.1 | 1.03 | 1.27 | 1.08 | 0.13 | 1.1 | 1.33
10 µM | 0.138 | 1.09 | 0.959 | 1.11 | 0.174 | 1.1 | 0.729
20 µM | 0.102 | 1.17 | 0.912 | 1.12 | 0.135 | 0.477 | 0.199

Oc1c(Cl)cc(Cl)c(Cl)c1Cc1c(O)c(Cl)cc(Cl)c1Cl [Hexachlorophene]
Conditions | fold change of Tryptamine concentration, [1] | growth, [2]
0.6125 µM | 1.1 | 1.05
1.25 µM | 1.03 | 0.819
2.5 µM | 1.09 | 0.779
5 µM | 0.693 | 0.711
10 µM | 0.0218 | -0.0128
20 µM | 0.0164 | -0.032

From the supplement of paper PMC12494721
